Values of other authors as cited in PubChem BioAssay AID1259410 (Chemical Carcinogenesis Research Information System (CCRIS), 2018).

Test system: rodent tumor promotion studies, tumor incidence
Assay: CCRIS tumor promotion studies
[1] = Carcinogen: 2-(ACETYLAMINO)FLUORINE, Doses [Carcinogen]: DIET, Doses [Promoter]: IN DIET, Route [Carcinogen]: ORAL, Route [Promoter]: ORAL, Species: RAT, Strain/Sex: MALE
[2] = Carcinogen: 7,12-DIMETHYLBENZ(A)ANTHRACENE, Doses [Carcinogen]: TOP, Route [Carcinogen]: DERMAL, Route [Promoter]: DERMAL, Species: MOUSE, Strain/Sex: FEMALE

In the case of Cc1cc(C(C)(C)C)c(O)c(C(C)(C)C)c1, the outcome (Carcinogen: 2-(ACETYLAMINO)FLUORINE, Doses [Carcinogen]: 200 PPM IN DIET FOR 8 WK, Doses [Promoter]: 300, 1000, 3000, 6000 PPM IN DIET FOR 22 WK AFTER INITIATION FOR 8 WK, Doses [Promoter]: 300, 1000, 3000, 6000 PPM IN DIET FOR 22 WK AFTER INITIATION FOR 8 WK, Route [Carcinogen]: ORAL, Route [Promoter]: ORAL, Species: RAT, Strain/Sex: F344/MALE) is given as “liver: neoplastic nodule, hepatocellular carcinoma”, the outcome [1] is given as “liver” and the outcome (Carcinogen: 3,2'-DIMETHYL-4-AMINOBIPHENYL, 13394-86-0, Doses [Carcinogen]: 50 MG/KG IN CORN OIL 1/WK FOR 10 WK, Doses [Promoter]: 0, 1 ADMINISTERED TO 4 WK OLD RATS IN DIET FOR 11 WK BEGINNING 1 WK PRIOR TO CARCINOGEN (STUDY DURATION: 55 WK), Route [Carcinogen]: SUBCUTANEOUS, Route [Promoter]: ORAL, Species: RAT, Strain/Sex: F344/MALE) is given as “bladder: carcinoma, papilloma”. The outcome (Carcinogen: 3-METHYLCHOLANTHRENE, 56-49-5, Doses [Carcinogen]: 10, 15, 25 UG/G ONCE, Doses [Carcinogen]: 10, 15, 25 UG/G ONCE, Doses [Promoter]: 0, 200 MG/KG 1/WK FOR 6 WK (STUDY DURATION: 20 WK), Route [Carcinogen]: INTRAPERITONEAL, Route [Promoter]: INTRAPERITONEAL, Species: MOUSE, Strain/Sex: BALB/CBYJ/FEMALE) was “lung: tumor”, the outcome (Carcinogen: 3-METHYLCHOLANTHRENE, 56-49-5, Doses [Carcinogen]: 10 UG/G ONCE, Doses [Promoter]: 0, 200 MG/KG 1/WK FOR 6 WK (STUDY DURATION: 20 WK), Route [Carcinogen]: INTRAPERITONEAL, Route [Promoter]: INTRAPERITONEAL, Species: MOUSE, Strain/Sex: BALB/COLA/FEMALE) was “lung: tumor” and the outcome (Carcinogen: METHYLNITROSOUREA, 684-93-5, Doses [Carcinogen]: 20 MG/KG 2/WK FOR 4 WK, Doses [Promoter]: 0, 1% IN DIET BEGINNING POST CARCINOGEN TREATMENT AND CONTINUING FOR 32 WK (STUDY DURATION: 36 WK), Route [Carcinogen]: INTRAPERITONEAL, Route [Promoter]: ORAL, Species: RAT, Strain/Sex: F344/MALE) was “urinary bladder: papilloma, carcinoma; thyroid: adenoma”. For the same molecule, the outcome (Carcinogen: N,N-DIBUTYLNITROSAMINE, 924-16-3, Doses [Carcinogen]: 0.05% IN DRINKING WATER FOR 16 WK, Doses [Promoter]: 0, 0.7% IN DIET FOR 16 WK CONCOMITANT WITH CARCINOGEN TREATMENT (STUDY DURATION: 32 WK), Route [Carcinogen]: ORAL, Route [Promoter]: ORAL, Species: RAT, Strain/Sex: F344/MALE) was “liver: hepatocellular carcinoma”, the outcome (Carcinogen: N-BUTYL-N-(4-HYDROXYBUTYL)NITROSAMINE, 3817-11-6, Doses [Carcinogen]: 0.05% IN DRINKING WATER FOR 4 WK, Doses [Promoter]: 0, 1% IN DIET FOR 32 WK (STUDY DURATION: 36 WK), Route [Carcinogen]: ORAL, Route [Promoter]: ORAL, Species: RAT, Strain/Sex: F344/MALE) was “urinary bladder: papilloma, carcinoma” and the outcome (Carcinogen: N-BUTYL-N-(4-HYDROXYBUTYL)NITROSAMINE, Doses [Carcinogen]: 0.05% IN DRINKING WATER FOR 4 WK, Doses [Promoter]: 1% IN DIET FOR 32 WK AFTER INITIATION, Route [Carcinogen]: ORAL, Route [Promoter]: ORAL, Species: RAT, Strain/Sex: F344/MALE) was “urinary bladder: carcinoma”. For the same molecule, the outcome (Carcinogen: N-METHYL-N-NITROSOUREA, 684-93-5, Doses [Carcinogen]: 20 MG/KG 2/WK FOR 4 WK, Doses [Promoter]: 0, 1% IN DIET FOR 32 WK (STUDY DURATION: 36 WK), Route [Carcinogen]: INTRAPERITONEAL, Route [Promoter]: ORAL, Species: RAT, Strain/Sex: F344/MALE) was “thyroid gland: adenoma; urinary bladder: papilloma, carcinoma”, the outcome (Carcinogen: URETHANE, 51-79-6, Doses [Carcinogen]: 1 MG/G BW ONCE, Doses [Promoter]: 0, 200 MG/G BW 1/WK FOR 6 WK BEGINNING POST CARCINOGEN TREATMENT (STUDY DURATION: 20 WK), Route [Carcinogen]: INJECTION, Route [Promoter]: INJECTION, Species: MOUSE, Strain/Sex: BALB/MALE,FEMALE) was “lung: tumor” and the outcome (Carcinogen: URETHANE, 51-79-6, Doses [Carcinogen]: 1 MG/G BW ONCE, Doses [Promoter]: 0, 200 MG/G BW 1/WK FOR 6 WK BEGINNING POST CARCINOGEN TREATMENT (STUDY DURATION: 20 WK), Route [Carcinogen]: INJECTION, Route [Promoter]: INJECTION, Species: MOUSE, Strain/Sex: GRS/MALE,FEMALE) was “lung: tumor”. The outcome (Carcinogen: URETHANE, 51-79-6, Doses [Carcinogen]: 1 MG/KG ONCE, Doses [Promoter]: 0, 200 MG/KG 1/WK FOR 6 WK (STUDY DURATION: 20 WK), Route [Carcinogen]: INTRAPERITONEAL, Route [Promoter]: INTRAPERITONEAL, Species: MOUSE, Strain/Sex: BALB/CBYJ/FEMALE) was “lung: tumor”, the outcome (Carcinogen: URETHANE, Doses [Carcinogen]: 1000 MG/KG ONCE, Doses [Promoter]: 0.10, 0.25, 0.50% IN DIET FOR 8 WK BEGINNING 24 HR AFTER INITIATION, Doses [Promoter]: 0.10, 0.25, 0.50% IN DIET FOR 8 WK BEGINNING 24 HR AFTER INITIATION, Route [Carcinogen]: INTRAPERITONEAL, Route [Promoter]: ORAL, Species: MOUSE, Strain/Sex: STRAIN-A/MALE) was “lung: tumor (nos)” and the outcome (Carcinogen: URETHANE, Doses [Carcinogen]: IP, Route [Carcinogen]: INTRAPERITONEAL, Route [Promoter]: INTRAPERITONEAL, Species: MOUSE, Strain/Sex: MALE) was “lung”.

In the case of CC1=CC[C@H]2C[C@@H]1C2(C)C, the outcome (Carcinogen: 7,12-DIMETHYLBENZ(A)ANTHRACENE, Doses [Carcinogen]: TOP, Route [Carcinogen]: DERMAL, Route [Promoter]: DERMAL, Species: MOUSE) is listed as “integumentary system (skin)”.

For CC(C)(C)c1ccc(O)c(O)c1, the outcome (Carcinogen: N-METHYL-N'-NITRO-N-NITROSOGUANIDINE, 70-25-7, Doses [Carcinogen]: 150 MG/KG IN DMSO ONCE, Doses [Promoter]: 0, 1.5% IN DIET FOR 51 WK BEGINNING 1 WK AFTER CARCINOGEN DOSE (STUDY DURATION: 52 WK), Route [Carcinogen]: GAVAGE, Route [Promoter]: ORAL, Species: RAT, Strain/Sex: F344/MALE) is given as “forestomach: squamous cell carcinoma”.

For CC1(C)OC(=O)N(c2cc(Cl)cc(Cl)c2)C1=O, the outcome [1] is given as “liver”.

In the case of O=C(CCNNC(=O)c1ccncc1)NCc1ccccc1, the outcome (Carcinogen: N-METHYL-N'-NITRO-NITROSOGUANIDINE, Doses [Carcinogen]: 25 UG/ML IN DRINKING WATER FOR 25 WK, Doses [Promoter]: 0, 50 MG/KG IN OLIVE OIL 1/2D FOR 26 WK ADMINISTERED POST CARCINOGEN DOSES (STUDY DURATION: 52 WK), Route [Carcinogen]: ORAL, Route [Promoter]: SUBCUTANEOUS, Species: RAT, Strain/Sex: WISTAR/MALE) is listed as “glandular stomach: adenocarcinoma”.

For CC[C@@H](C)[C@H](NC(=O)CN)C(=O)N[C@H](C(=O)N[C@@H](CCC(=O)O)C(=O)N[C@@H](CCC(N)=O)C(=O)N[C@H]1CSSC[C@H]2NC(=O)[C@H]([C@H](C)CC)NC(=O)[C@H](CO)NC(=O)[C@H]([C@H](C)O)NC(=O)[C@H](CSSC[C@H](NC(=O)[C@H](CC(C)C)NC(=O)[C@H](Cc3c[nH]cn3)NC(=O)[C@H](CCC(N)=O)NC(=O)[C@@H](NC(=O)[C@@H](NC(=O)[C@@H](N)Cc3ccccc3)C(C)C)C(N)=O)C(=O)NCC(=O)N[C@@H](CO)C(=O)N[C@@H](Cc3c[nH]cn3)C(=O)N[C@@H](CC(C)C)C(=O)N[C@@H](C(C)C)C(=O)N[C@@H](CCC(=O)O)C(=O)N[C@@H](C)C(=O)N[C@@H](CC(C)C)C(=O)N[C@@H](Cc3ccc(O)cc3)C(=O)N[C@@H](CC(C)C)C(=O)N[C@@H](C(C)C)C(=O)N[C@H](C(=O)NCC(=O)N[C@@H](CCC(=O)O)C(=O)N[C@@H](CCCNC(=N)N)C(=O)NCC(=O)N[C@@H](Cc3ccccc3)C(=O)N[C@@H](Cc3ccccc3)C(=O)N[C@@H](Cc3ccc(O)cc3)C(=O)N[C@H](C(=O)N3CCC[C@H]3C(=O)N[C@@H](CCCCN)C(=O)N[C@H](C(=O)O)[C@H](C)O)[C@H](C)O)CSSC[C@@H](C(=O)N[C@@H](CC(N)=O)C(=O)O)NC(=O)[C@H](Cc3ccc(O)cc3)NC(=O)[C@H](CC(N)=O)NC(=O)[C@H](CCC(=O)O)NC(=O)[C@H](CC(C)C)NC(=O)[C@H](CCC(N)=O)NC(=O)[C@H](Cc3ccc(O)cc3)NC(=O)[C@H](CC(C)C)NC(=O)[C@H](CO)NC2=O)NC1=O)C(C)C, the outcome (Carcinogen: 7,12-DIMETHYLBENZ[A]ANTHRACENE, 57-97-6, Doses [Carcinogen]: 20 MG IN 4 ML OLIVE OIL ONCE, Doses [Promoter]: 0, 10 I.U./D BEGINNING 4 WK POST CARCINOGEN DOSE AND CONTINUING FOR DURATION OF STUDY (STUDY DURATION: 6 MO), Route [Carcinogen]: GAVAGE, Route [Promoter]: SUBCUTANEOUS, Species: RAT, Strain/Sex: SWISS/FEMALE) is given as “mammary gland: tumor”.

In the case of CC(CCC(=O)NCCS(=O)(=O)O)[C@H]1CC[C@H]2[C@@H]3CC[C@@H]4C[C@H](O)CC[C@]4(C)[C@H]3C[C@H](O)[C@]12C (stereo partly drawn), the outcome (Doses [Carcinogen]: IR, Route [Carcinogen]: RECTAL, Route [Promoter]: RECTAL, Species: RAT, Strain/Sex: MALE,FEMALE) is given as “colon”.

For Cc1cccc(O)c1, the outcome [2] is listed as “integumentary system (skin)”.

In the case of Oc1ccc(Br)cc1, the outcome [2] is given as “integumentary system (skin)”.
